Test results as given in the supplement of paper PMC8253809.

How the values were obtained:
SUDIPGXIII [1] = diffuse intrinsic pontine glioma line; assay: area under dose-response curve of % growth inhibition (log2 RLU vs DMSO / staurosporine), 1e-11 to 1e-4 M (% x log10 M); higher = more growth inhibition
In short: (§1)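 A 10-point threefold dilution series, mean top concentration 35 μM, was applied in triplicate to patient-derived pHGG/DIPG lines and astrocytes on 1% Geltrex-coated 384-well plates for 7 days (3 days for iAstro) at 37 °C, 5% CO2. Per-plate % activity between solvent and positive controls was calculated from log2-transformed CellTiter-Glo luminescence. Area under the curve followed from the trapezoid rule on a log-logistic fit, or on a smoothing spline when the sigmoid fit failed.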

DIPGX37 [2] = H3.3 K27M diffuse intrinsic pontine glioma line; assay: as above
In short: as §1

SUDIPGXIX [3] = diffuse intrinsic pontine glioma line; assay: as above
In short: as §1

HGGX39 [4] = paediatric high-grade glioma line; assay: as above
In short: as §1

iAstro [5] = astrocyte control; assay: as above
In short: as §1

SUDIPGXVII [6] = diffuse intrinsic pontine glioma line; assay: as above
In short: as §1

HGGX6 [7] = H3.3 G34R paediatric high-grade glioma line; assay: as above
In short: as §1

SUDIPGXXI [8] = diffuse intrinsic pontine glioma line; assay: as above
In short: as §1

HGGX2 [9] = paediatric high-grade glioma line; assay: as above
In short: as §1

SUDIPGVI [10] = diffuse intrinsic pontine glioma line; assay: as above
In short: as §1

HABS [11] = astrocyte control; assay: as above
In short: as §1

SUDIPGIV [12] = diffuse intrinsic pontine glioma line; assay: as above
In short: as §1

DIPGX29 [13] = H3.3 K27M diffuse intrinsic pontine glioma line; assay: as above
In short: as §1

DIPGX7 [14] = H3.3 K27M diffuse intrinsic pontine glioma line; assay: as above
In short: as §1

DIPGX9 [15] = diffuse intrinsic pontine glioma line; assay: as above
In short: as §1

SUDIPGXIII [16] = assay: EC50 (inflection of fitted growth-inhibition curve) (log10 M)
In short: (§2)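 A pin tool was used to add a 10-point threefold dilution series (mean top concentration 35 μM), in triplicate, to patient-derived pHGG/DIPG cell lines and astrocyte controls seeded on 384-well plates coated with 1% Geltrex. After 7 days at 37 °C and 5% CO2 (3 days for iAstro), CellTiter-Glo luminescence was log2-transformed, normalised on each plate to % activity relative to negative (solvent) and positive control wells, and pooled. EC50 and maximal response (yFin) were read from the three- or four-parameter log-logistic fit with the lowest AICc.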

DIPGX37 [17] = assay: as above
In short: as §2

SUDIPGXIX [18] = assay: as above
In short: as §2

HGGX39 [19] = assay: as above
In short: as §2

iAstro [20] = assay: as above
In short: as §2

SUDIPGXVII [21] = assay: as above
In short: as §2

HGGX6 [22] = assay: as above
In short: as §2

SUDIPGXXI [23] = assay: as above
In short: as §2

HGGX2 [24] = assay: as above
In short: as §2

SUDIPGVI [25] = assay: as above
In short: as §2

HABS [26] = assay: as above
In short: as §2

SUDIPGIV [27] = assay: as above
In short: as §2

DIPGX29 [28] = assay: as above
In short: as §2

DIPGX7 [29] = assay: as above
In short: as §2

DIPGX9 [30] = assay: as above
In short: as §2

HGGX42 = H3.3 G34R paediatric high-grade glioma line; assay: as above
In short: as §2

Row | SMILES | area under dose-response curve (SUDIPGXIII [1]) | area under dose-response curve (DIPGX37 [2]) | area under dose-response curve (SUDIPGXIX [3]) | area under dose-response curve (HGGX39 [4]) | area under dose-response curve (iAstro [5]) | area under dose-response curve (SUDIPGXVII [6]) | area under dose-response curve (HGGX6 [7]) | area under dose-response curve (SUDIPGXXI [8]) | area under dose-response curve (HGGX2 [9]) | area under dose-response curve (SUDIPGVI [10]) | area under dose-response curve (HABS [11]) | area under dose-response curve (SUDIPGIV [12]) | area under dose-response curve (DIPGX29 [13]) | area under dose-response curve (DIPGX7 [14]) | area under dose-response curve (DIPGX9 [15]) | EC50 (log10 M) (SUDIPGXIII [16]) | EC50 (log10 M) (DIPGX37 [17]) | EC50 (log10 M) (SUDIPGXIX [18]) | EC50 (log10 M) (HGGX39 [19]) | EC50 (log10 M) (iAstro [20]) | EC50 (log10 M) (SUDIPGXVII [21]) | EC50 (log10 M) (HGGX6 [22]) | EC50 (log10 M) (SUDIPGXXI [23]) | EC50 (log10 M) (HGGX2 [24]) | EC50 (log10 M) (SUDIPGVI [25]) | EC50 (log10 M) (HABS [26]) | EC50 (log10 M) (SUDIPGIV [27]) | EC50 (log10 M) (DIPGX29 [28]) | EC50 (log10 M) (DIPGX7 [29]) | EC50 (log10 M) (DIPGX9 [30]) | EC50 (log10 M) (HGGX42)
1 | CC(C)(C)c1cnc(CSc2cnc(NC(=O)C3CCNCC3)s2)o1 | 176 | 192 | 245 | 171 | 55.9 | 199 | 151 | 320 | 130 | 196 | 121 | 221 | 185 | 208 | 281 | -5.95 | -6.21 | -6.11 | -6.02 | -6.22 | -6.08 | -5.8 | -6.91 | -6.28 | -6.37 | -6.64 | -6.15 | -6.2 | -5.84 | -6.71 | -6.48
2 | CC(C)c1c2cc(-c3ccnc(NC4CCC(NC5CCOCC5)CC4)n3)ccc2nn1C (configuration not stated) | 249 | 225 | 278 | 189 | 91.7 | 263 | 210 | 319 | 198 | 252 | 135 | 256 | 222 | 270 | 283 | -6.79 | -6.77 | -7.04 | -6.34 | -7.45 | -6.93 | -6.69 | -7.19 | -6.63 | -7 | -7.04 | -6.83 | -6.63 | -6.89 | -7.17 | -7.07
3 | CC(C)c1cc(C(=O)N2Cc3ccc(CN4CCN(C)CC4)cc3C2)c(O)cc1O | 111 | 264 | 230 | 218 | 88 | 164 | 92.3 | 256 | 145 | 88.8 | 215 | 152 | 189 | 125 | 281 | -6.14 | -6.85 | -6.98 | -6.08 | -7.01 | -6.44 | -6.73 | -6.4 | -6.72 | -5.95 | -6.06 | -6.68 | -5.68 | -5.07 | -6.96 | -5.89
4 | COc1cc(F)ccc1-c1ncnc(Nc2cccc(CS(C)(=N)=O)c2)n1 (configuration not stated) | 84.4 | 128 | 156 | 82.1 | 57.6 | 109 | 121 | 226 | 100 | 120 | 104 | 156 | 109 | 143 | 195 | -4.98 | -5.68 | -5.55 | -5.23 | -6.51 | -5.15 | -5.44 | -5.99 | -5.75 | -5.33 | -5.83 | -5.38 | -5.41 | -5.15 | -5.9 | -6.01
5 | Cc1ccc2nc(NCCN)c3ncc(C)n3c2c1 | 89.5 | 93.7 | 79.1 | 52.5 | 35.1 | 78.2 | 75.1 | 143 | 54.2 | 67 | 54.2 | 113 | 94.6 | 96.7 | 99.8 | -4.89 | -4.96 | -4.93 | -4.91 | -5.39 | -4.88 | -4.92 | -5.23 | -5.19 | -4.96 | -4.94 | -4.93 | -4.95 | -4.87 | -5.01 | -5
6 | c1ccc2c(-c3cnn4cc(-c5ccc(N6CCNCC6)cc5)cnc34)ccnc2c1 | 162 | 163 | 187 | 147 | 137 | 172 | 146 | 291 | 185 | 166 | 129 | 171 | 165 | 183 | 202 | -5.56 | -5.65 | -5.66 | -5.65 | -5.51 | -5.61 | -5.58 | -6.41 | -5.78 | -5.58 | -5.19 | -5.52 | -5.73 | -5.63 | -5.68 | -5.68
7 | COc1ccc(C[C@H](NC(=O)[C@H](C)NC(=O)CN2CCOCC2)C(=O)N[C@@H](Cc2ccccc2)C(=O)C2(C)CO2)cc1 (stereo in doubt) [ONX-0914] | 230 | 242 | 245 | 209 | 243 | 175 | 182 | 328 | 277 | 233 | 206 | 255 | 156 | 220 | 252 | -6.56 | -6.53 | -6.58 | -6.36 | -7.31 | -5.91 | -5.97 | -7.49 | -7.17 | -6.72 | -6.19 | -6.84 | -6.14 | -6.25 | -6.6 | -6.73
8 | CN(C)C/C=C/C(=O)Nc1cc2c(Nc3ccc(F)c(Cl)c3)ncnc2cc1O[C@H]1CCOC1 [AFATINIB] | 85.6 | 116 | 123 | 99.2 | 80.2 | 87.7 | 86.1 | 168 | 115 | 130 | 102 | 90.9 | 110 | 108 | 144 | -4.71 | -4.72 | -4.83 | -4.73 | -4.88 | -4.81 | -4.75 | -5.4 | -4.92 | -4.84 | -4.84 | -4.82 | -4.73 | -4.85 | -4.88 | -4.86
9 | O=C(Nc1c[nH]nc1-c1nc2ccc(CN3CCOCC3)cc2[nH]1)NC1CC1 [AT9283] | 77.4 | 132 | 184 | 186 | 42.3 | 128 | 134 | 310 | 87.8 | 97.6 | 173 | 167 | 150 | 143 | 203 | -4.79 | -4.79 | -5.33 | -6.03 | -5.54 | -4.95 | -5.15 | -6.69 | -4.91 | -4.97 | -5.83 | -5.66 | -5.17 | -4.88 | -5.66 | -5.4
10 | CC(=O)OC[C@H]1O[C@@H]([S-])[C@H](OC(C)=O)[C@@H](OC(C)=O)[C@@H]1OC(C)=O.CCP(CC)CC.[Au+] [AURANOFIN] | 168 | 219 | 219 | 165 | 196 | 169 | 218 | 323 | 248 | 202 | 146 | 198 | 232 | 228 | 209 | -5.39 | -6.41 | -5.93 | -5.52 | -5.84 | -5.45 | -6.35 | -6.66 | -6.28 | -5.76 | -5.29 | -5.57 | -6.49 | -5.9 | -5.78 | -6.16
11 | COC(=O)[C@]12CCC(C)(C)C[C@H]1[C@H]1C(=O)C=C3[C@@]4(C)C=C(C#N)C(=O)C(C)(C)[C@@H]4CC[C@@]3(C)[C@]1(C)CC2 [BARDOXOLONE METHYL] | 155 | 185 | 207 | 185 | 189 | 173 | 168 | 231 | 181 | 155 | 174 | 201 | 189 | 221 | 185 | -5.62 | -6.09 | -5.53 | -6.01 | -5.99 | -5.59 | -5.93 | -6.24 | -5.74 | -5.63 | -5.66 | -5.65 | -6.17 | -5.56 | -5.73 | -5.83
12 | CC(C)(C)OC(=O)Nc1ccc(-c2cc(C(=O)NCCCCCCC(=O)NO)no2)cc1 [BML-281] | 54.5 | 56.6 | 87.7 | 94.4 | 61.4 | 63.9 | 55.5 | 212 | 92 | 65.9 | 83.1 | 104 | 85.5 | 111 | 146 | -4.89 | -5.46 | -5 | -4.94 | -5.37 | -5.09 | -5.04 | -6.1 | -5.43 | -4.92 | -4.89 | -5.19 | -5.53 | -4.92 | -5.48 | -5.45
